Data from patent publication US20220281866A1, “5,8-DISUBSTITUTED-[1,2,4]TRIAZOLO[1,5-A]PYRIDINYL AND 5,8-DISUBSTITUTED-IMIDAZO[1,2-A]PYRIDINE DERIVATIVES USEFUL AS INHIBITORS OF ENTEROPEPTIDASE” (Janssen Pharmaceutica NV, priority 2019, published 2022).

Tests used:
Bovine trypsin = biological target: T1, Bovine trypsin (Bos taurus, UniProt P00760); assay: Biochemical Assay of Trypsin (T), H-D-CHA-AR-AMC substrate; conditions: 15 μM substrate, 0.025 nM Trypsin; for inhibition at 0.1 µM: compound 0.1 μM; for inhibition at 1 µM: compound 1 μM; for inhibition at 10 µM: compound 10 μM
T1 construct: purchased Sigma-Aldrich T1426
T1 sequence (P00760 24-246): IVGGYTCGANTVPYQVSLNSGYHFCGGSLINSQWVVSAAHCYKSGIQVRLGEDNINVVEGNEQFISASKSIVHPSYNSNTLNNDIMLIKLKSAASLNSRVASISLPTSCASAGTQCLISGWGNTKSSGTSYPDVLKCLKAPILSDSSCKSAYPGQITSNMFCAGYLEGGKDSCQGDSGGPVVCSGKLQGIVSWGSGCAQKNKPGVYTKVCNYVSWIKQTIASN
Procedure: Bovine trypsin was purchased from Sigma-Aldrich (Cat No. T1426), and 7-amino-4-methylcoumarin (AMC) conjugated peptide H-D-cyclohexylalanine (D-CHA)-AR-AMC was used as the substrate in the assay. The protease activity of trypsin was followed by measuring AMC production by the emission fluorescence intensity of AMC at 460 nm with the excitation at 375 nm, in the same assay buffer as used in the EP assay. The enzyme kinetic characterization studies yielded an average of KM to be 3.9±0.5 μM and the apparent turnover number kcat^app of 33.8±0.4 s^−1 (N=2).
Studies of compound inhibition against T were carried out under the conditions of 15 μM substrate and 0.025 nM Trypsin. Reaction progress curves were collected by reading the FI at 375/460 nm continuously for 1 hour at an interval of 1 minute. Similar to the procedure for Enteropeptidase described above, compounds of formula (I) were screened against Trypsin at 4 different concentrations to obtain the percent of inhibition at 10 μM, 1 μM, 0.1 μM and 0.01 μM, and accurate potencies of selected compounds against Trypsin were derived from detailed 12-point dose-dependence studies for time-dependent inhibitors.
(§1) Representative compounds of the present invention were tested according to the procedures as described in Biological Example 1 and Biological Example 2 above, with results as listed in Table 2 and Table 3, below. Results are reported as the %-inhibition (% Inh) or Kinact/KI value. Variability for the functional assay was typically within 20%. For the column headed Kinact/KI the listed measurement is the result of duplicate dilutions.

[1] = biological target: T2, Recombinant full-length human EP (Enteropeptidase) (Homo sapiens, UniProt P98073); assay: In vitro inhibition potencies against Enteropeptidase (EP), fluorescent peptide GDDDDK-naphthylamine substrate; type: biochemical; conditions: 300 μM substrate, 1.25 nM EP; for inhibition at 0.1 µM: compound 0.1 μM; for inhibition at 1 µM: compound 1 μM; for inhibition at 10 µM: compound 10 μM
T2 construct: Recombinant full-length human EP (PeproTech, Cat #450-48C); purchased PeproTech 450-48C
T2 sequence (P98073 whole entry): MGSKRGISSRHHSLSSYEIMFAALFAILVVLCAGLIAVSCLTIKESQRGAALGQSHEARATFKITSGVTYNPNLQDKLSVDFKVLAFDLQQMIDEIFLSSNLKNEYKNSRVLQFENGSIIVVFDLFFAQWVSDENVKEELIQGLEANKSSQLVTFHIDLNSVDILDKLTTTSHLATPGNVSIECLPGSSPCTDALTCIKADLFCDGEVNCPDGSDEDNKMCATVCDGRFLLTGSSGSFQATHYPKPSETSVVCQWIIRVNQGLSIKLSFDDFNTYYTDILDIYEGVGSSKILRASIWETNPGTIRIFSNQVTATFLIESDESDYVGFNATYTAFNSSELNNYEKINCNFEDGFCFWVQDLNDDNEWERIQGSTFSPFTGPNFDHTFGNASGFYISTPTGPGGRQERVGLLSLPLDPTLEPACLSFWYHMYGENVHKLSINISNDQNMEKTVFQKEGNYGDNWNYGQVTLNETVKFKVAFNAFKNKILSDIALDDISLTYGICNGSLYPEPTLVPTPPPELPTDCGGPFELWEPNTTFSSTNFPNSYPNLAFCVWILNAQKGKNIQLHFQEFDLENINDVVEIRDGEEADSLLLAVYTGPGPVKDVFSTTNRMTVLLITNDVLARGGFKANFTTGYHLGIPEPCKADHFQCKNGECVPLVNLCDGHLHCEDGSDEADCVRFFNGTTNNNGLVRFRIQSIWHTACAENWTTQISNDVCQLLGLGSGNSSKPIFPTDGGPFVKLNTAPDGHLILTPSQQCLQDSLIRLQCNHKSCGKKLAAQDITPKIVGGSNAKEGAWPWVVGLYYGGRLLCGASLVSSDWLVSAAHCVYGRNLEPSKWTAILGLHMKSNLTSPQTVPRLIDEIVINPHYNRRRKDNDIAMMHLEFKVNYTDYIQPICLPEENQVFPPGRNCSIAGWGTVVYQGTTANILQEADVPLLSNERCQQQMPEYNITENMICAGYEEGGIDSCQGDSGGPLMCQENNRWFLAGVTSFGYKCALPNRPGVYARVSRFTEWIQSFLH
Procedure: In vitro inhibition potencies against Enteropeptidase (EP) Recombinant full-length human EP (PeproTech, Cat #450-48C) was used in this biochemical assay, with a quenched fluorescent labeled peptide GDDDDK-naphthylamine (NA) (Sigma, Cat #G5261) as the substrate in a buffer of 50 mM Tris-HCl pH 7.4, 200 mM NaCl and 0.01% Triton X-100. The enzyme activity was measured by following the formation of the cleavage product […](NA) by monitoring the fluorescence intensity (FI) at excitation/emission wavelengths of 340/410 nm. The steady-state kinetic characterization studies yielded an average of KM to be 412±22 μM and the apparent turnover number kcat^app of 11.8±0.4 s^−1 (N=2).
Compound inhibition studies were carried out under the conditions of 300 μM substrate and 1.25 nM EP. Reaction progress curves were collected by reading the FI at 340/410 nm continuously for 1 hour at an interval of 1 minute.
To screen compounds of formula (I), inhibition was studied at 4 different compound concentrations of 10 μM, 1 μM, 0.1 μM and 0.01 μM. Initial velocity of the reaction was determined, and percent of inhibition was calculated by comparing to the reaction in the absence of compound.
Accurate measurements of the inhibition potencies of selected compounds were studied in a 12-point dose-dependence fashion. […] Compound potency was measured by determining the inactivation rate constant (kobs) following the reaction change from the initial velocity vi to the steady-state velocity vs at various compound concentrations. The inactivation rate constants (kobs), were derived by fitting the reaction progress curves to eq. 1.
where YT is the detection signal of the reaction at time t, vi and vs are the initial and the steady-state velocities of the reaction, t is the reaction time. Y0 is the background signal (when t=0).
Compound binding mechanism was shown by plotting kobs˜[compound]. Hyperbolic fitting to eq. 2
conforms to a two-step binding mechanism as shown in Scheme BIO-1.
The plateau of the curve is the forward step rate constant of the isomerization step k3, KI^app is the inhibitor concentration that leads to half-maximal rate of inhibition of enzyme under the assay conditions. Compound inhibition potency was reported by the value of k3/KI^app.
A linear dependence of eq.3
indicates a one-step binding mechanism as shown in Scheme BIO-2
Slope of the linear fit gives the second-order rate constant of the compound binding k1, which is used to represent the compound inhibition potency.
as §1

| SMILES | inhibition at 0.1 µM (Bovine trypsin) [%] | inhibition at 1 µM (Bovine trypsin) [%] | inhibition at 10 µM (Bovine trypsin) [%] | inhibition at 0.1 µM [1] [%] | inhibition at 1 µM [1] [%] | inhibition at 10 µM [1] [%] | kinact/KI (Bovine trypsin; 12-point dose-dependence, time-dependent inhibition, duplicate dilutions, read-out: Kinact/KI^App) [M⁻¹ s⁻¹] | kinact/KI ([1]; 12-point dose-dependence, time-dependent inhibition, duplicate dilutions, read-out: kinact/KI^App) [M⁻¹ s⁻¹] |
| --- | --- | --- | --- | --- | --- | --- | --- | --- |
| N=C(N)Nc1ccc(C(=O)Oc2ccc(Cc3nn[nH]n3)n3ncnc23)cc1 [Compound 11, 5-((2H-tetrazol-5-yl)methyl)-[1,2,4]triazolo[1,5-a]pyridin-8-yl 4-guanidinobenzoate] | 99.3 | 100 | 100 | 89.7 | 101 | 100 | – | – |
| N#CNC(=N)c1ccc(C(=O)Oc2ccc(CC(=O)O)n3ncnc23)cc1 [Compound 38, 2-(8-(4-(N-cyanocarbamimidoyl)benzoyloxy)-[1,2,4]triazolo[1,5-a]pyridin-5-yl)acetic acid] | -2.1 | 2.5 | 35.8 | -1.6 | 1.9 | 13.6 | – | – |
| N=C(N)Nc1ccc(C(=O)Oc2ccc(C3OC(=O)NC3=O)n3ncnc23)cc1 (centres unmarked) [Compound 17, 5-(2,4-dioxooxazolidin-5-yl)-[1,2,4]triazolo[1,5-a]pyridin-8-yl 4-guanidinobenzoate] | 99.8 | 100 | 100 | 73 | 101 | 100 | – | – |
| CNC(=N)c1ccc(C(=O)Oc2ccc(CC(=O)O)n3ncnc23)cc1 [Compound 33, 2-(8-(4-(N-methylcarbamimidoyl)benzoyloxy)-[1,2,4]triazolo[1,5-a]pyridin-5-yl)acetic acid] | 5.7 | 8.7 | 66.5 | -0.8 | 11.3 | 52.3 | – | – |
| N=C(N)Nc1ccc(C(=O)Oc2ccc(CC(=O)O)n3ncnc23)c(Cl)c1 [Compound 18, 2-(8-(2-chloro-4-guanidinobenzoyloxy)-[1,2,4]triazolo[1,5-a]pyridin-5-yl)acetic acid] | 43.5 | 97.6 | 99.9 | 81.2 | 100 | 100 | – | – |
| N=C(N)Nc1ncc(C(=O)Oc2ccc(CC(=O)NC(CC(=O)O)C(=O)O)n3ccnc23)cn1 (centres unmarked) [Compound 31, 2-(2-(8-(2-guanidinopyrimidine-5-carbonyloxy)imidazo[1,2-a]pyridin-5-yl)acetamido)succinic acid] | 95.7 | 99.9 | 100 | 85.8 | 99.7 | 99.8 | – | – |
| N=C1NCCN1c1ccc(C(=O)Oc2ccc(CC(=O)O)n3ncnc23)cc1 [Compound 32, 2-(8-(4-(2-iminoimidazolidin-1-yl)benzoyloxy)-[1,2,4]triazolo[1,5-a]pyridin-5-yl)acetic acid] | 10.9 | 58.3 | 93 | 10.5 | 57.9 | 93.2 | – | – |
| N=C(N)Nc1ccc(C(=O)Oc2ccc(CC(=O)O)n3ncnc23)c2ccoc12 [Compound 24] | 14.6 | 80 | 99.9 | 36.3 | 98.8 | 100 | – | – |
| CC(=N)Nc1ccc(C(=O)Oc2ccc(CC(=O)O)n3ncnc23)cc1 [Compound 37, 2-(8-(4-acetimidamidobenzoyloxy)-[1,2,4]triazolo[1,5-a]pyridin-5-yl)acetic acid] | 11.5 | 68 | 99.7 | 47.8 | 99.6 | 100 | – | – |
| N=C(N)Nc1ccc(C(=O)Oc2ccc(CC(=O)NC(CCC(=O)O)(CCC(=O)O)CCC(=O)O)n3ncnc23)cc1 [Compound 7, 4-(2-carboxyethyl)-4-(2-(8-(4-guanidinobenzoyloxy)-[1,2,4]triazolo[1,5-a]pyridin-5-yl)acetamido)heptanedioic acid] | 94.1 | 100 | 100 | 37.8 | 100 | 100 | – | – |
| N=C(N)Nc1ccc(C(=O)Oc2cc(CCC(=O)O)cn3ncnc23)cc1 [Compound 25, 3-(8-(4-guanidinobenzoyloxy)-[1,2,4]triazolo[1,5-a]pyridin-6-yl)propanoic acid] | 99.2 | 100 | 100 | 45.2 | 102 | 101 | – | – |
| Cc1cc(NC(=N)N)ccc1C(=O)Oc1ccc(CC(=O)O)n2ncnc12 [Compound 19, 2-(8-(4-guanidino-2-methylbenzoyloxy)-[1,2,4]triazolo[1,5-a]pyridin-5-yl)acetic acid] | 9.5 | 48.9 | 99.7 | 10.3 | 59.9 | 101 | – | – |
| N=C(N)Nc1ccc(C(=O)Oc2ccc(CC(=O)O)n3ncnc23)c(F)c1 [Compound 21, 2-(8-(2-fluoro-4-guanidinobenzoyloxy)-[1,2,4]triazolo[1,5-a]pyridin-5-yl)acetic acid] | 97.1 | 99.7 | 100 | 99.4 | 100 | 100 | – | – |
| C#CCOCCOCC#Cc1cc(NC(=N)N)ccc1C(=O)Oc1ccc(CC(=O)O)n2ncnc12 [Compound 42, 2-(8-((4-guanidino-2-(3-(2-(prop-2-yn-1-yloxy)ethoxy)prop-1-yn-1-yl)benzoyl)oxy)-[1,2,4]triazolo[1,5-a]pyridin-5-yl)acetic acid] | 52.9 | 99.6 | 100 | 62.3 | 98.5 | 99.8 | 59400 | 52800 |
| Cc1cc(C(=O)Oc2ccc(CC(=O)O)n3ncnc23)ccc1NC(=N)N [Compound 15, 2-(8-(4-guanidino-3-methylbenzoyloxy)-[1,2,4]triazolo[1,5-a]pyridin-5-yl)acetic acid] | -0.1 | 8.4 | 35.5 | 1.3 | 6.3 | 36.7 | – | – |
| N=C(N)Nc1ccc(C(=O)Oc2ccc(CC(=O)NCC(=O)O)n3ncnc23)cc1 [Compound 4, 2-(2-(8-(4-guanidinobenzoyloxy)-[1,2,4]triazolo[1,5-a]pyridin-5-yl)acetamido)acetic acid] | 99.7 | 100 | 100 | 48.1 | 101 | 100 | – | – |
